In data set [1] the test system is human hepatic myofibroblasts. The data set can be described thus: DNA synthesis ([3H] thymidine incorporation) in human hepatic myofibroblasts stimulated with PDGF-BB. The format is cell-based. The conditions noted are these: 20 ng/ml PDGF-BB, 30 h, read-out: half maximal inhibition of DNA synthesis elicited by PDGF-BB. The procedure: (§1) FIG. 3: Plots showing the effect of increasing amounts of CB1 antagonist SR141716 on DNA synthesis in human hepatic myofibroblast (panel A) and on wild type mice (shown as WT) and CB1 deficient mice (shown as CB1KO) (panel B). The DNA synthesis is expressed as a percentage of DNA synthesis in cells treated with the vehicle of SR 141716 and plotted against increasing concentrations of SR 141716 in nM. Human hepatic myofibroblast cells were stimulated for 30 h with varying concentrations of the CB1 receptor antagonist SR 141716, in the presence of 20 ng/ml of PDGF-BB [^3H] […] Error bars are shown on the plot. […] Thymidine incorporation into DNA was measured as mean±SEM, from 3-6 experiments obtained from cells isolated from livers of 3 WT and 3 CB1 -/- mice and are expressed as percent of control. […]
(§2) DNA synthesis was measured in triplicate wells by incorporation of [3H] thymidine, as previously described (Tao, J., et al., J Biol Chem, 1999. 274(34): p. 23761-23769). […]
(§3) The cell culture was performed as described in example 1 herein. Cell culture of both human and mouse hepatic myofibroblasts were exposed to increasing doses of CB1 receptor antagonist SR141716 and the DNA synthesis of hepatic myofibroblasts was measured.
Background: Incorporation of labelled thymidine or its analogues reports DNA synthesis.

Another data set deals with CD1 mice. As to the kind of experiment: Mortality induced by chronic carbon tetrachloride intoxication (experimental model of liver fibrosis) in mice. In kind it is in vivo. The following applies: 10 mg/kg daily intraperitoneal. From the text: FIG. 4: Plot showing the effect of SR141716 or its vehicle on the mortality induced by carbon tetrachloride in mice. The survival rate of mice treated with CC14 either with SR141716 (dotted lines) or with no treatment (solid lines showing the administration of vehicle only without CB1 antagonist) is shown against time in days. Time of administration of CC14 is shown by the arrow.
The antifibrogenic potential of the CB1 antagonist SR 141716 in an experimental model of liver fibrosis, induced by chronic intoxication with carbon tetrachloride was evaluated.
SR 141716 (10 mg/kg body weight) was dissolved freshly before use, in a vehicle solution (2 drops of Tween 80 in 10 ml of PBS containing 10% dimethylsulfoxide and 5% ethanol) and sonicated.
CD1 mice were obtained from Janvier (France). All experiments were performed using accepted ethical guidelines. 36 males, aged 10-12 weeks, were used and animals were divided into the following groups: vehicle-treated, olive oil group (n=3); vehicle-treated, CC14 group (n=14); SR 141716-treated olive oil group (n=3); SR 141716A-treated, CC14 group (n=16). Animals were housed in temperature and humidity controlled rooms, kept on a 12-h light/dark cycle and provided unrestricted amounts of food and water, unless otherwise specified. […]

Data set [2] has as its system CB1-/- cells (mouse hepatic myofibroblasts). The data set can be described thus: DNA synthesis ([3H] thymidine incorporation) in hepatic myofibroblasts from CB1-/- mice stimulated with PDGF-BB. The format is cell-based. The conditions noted are these: 20 ng/ml PDGF-BB, 30 h. The procedure:
as §1, §2, §3

For data set [3], the system named is murine myofibroblasts isolated from wild type mice. As to the kind of experiment: DNA synthesis ([3H] thymidine incorporation) in murine hepatic myofibroblasts from wild type mice stimulated with PDGF-BB. In kind it is cell-based, mouse. The following applies: 20 ng/ml PDGF-BB, 30 h. The procedure: as §1, §2, §3

Consider `Cc1c(C(=O)NN2CCCCC2)nn(-c2ccc(Cl)cc2Cl)c1-c1ccc(Cl)cc1` [SR141716, N-piperidino-5-(4-chlorophenyl)-1-(2,4-dichlorophenyl)-4-methylpyrazole-3-carboxamide], for which the IC50 in data set [1] was in the range of 300 to 400 nM. Further, in the data set on CD1 mice (CC14 0.5 ml/kg IP twice a week for one month, started 7 days before CC14), the “survival rate at one month” value came out at 83%. In the data set with CD1 mice (olive oil (sham) mice), the “deaths in sham animals” value was “no deaths”. In data set [2], the “proliferation (DNA synthesis elicited by PDGF-BB)” value is reported as “only marginally affected”. Also, the “DNA synthesis elicited by PDGF-BB” value in data set [3] is “inhibited”.

The values are drawn from patent US8604060B2, “Use of antagonists of the CBI receptor for the manufacture of a composition useful for the treatment of hepatic diseases” (INSERM, priority 2004, dated 2013).
